Paper PMC10239507, “Development of allosteric and selective CDK2 inhibitors for contraception with negative cooperativity to cyclin binding” (Nature Communications, 2023)

Key:
Assay in all cases: biochemical
[1] = target: T1, 371 kinases (kinase named in each endpoint) (Homo sapiens, UniProt O43187); details: IRAK2
T1 construct: purchased Reaction Biology

[2] = target: T2, 371 kinases (kinase named in each endpoint) (Homo sapiens, UniProt O43318); details: TAK1
T2 construct: purchased Reaction Biology

[3] = target: T3, 371 kinases (kinase named in each endpoint) (Homo sapiens, UniProt O43353); details: RIPK2
T3 construct: purchased Reaction Biology
T3 sequence (O43353 whole entry): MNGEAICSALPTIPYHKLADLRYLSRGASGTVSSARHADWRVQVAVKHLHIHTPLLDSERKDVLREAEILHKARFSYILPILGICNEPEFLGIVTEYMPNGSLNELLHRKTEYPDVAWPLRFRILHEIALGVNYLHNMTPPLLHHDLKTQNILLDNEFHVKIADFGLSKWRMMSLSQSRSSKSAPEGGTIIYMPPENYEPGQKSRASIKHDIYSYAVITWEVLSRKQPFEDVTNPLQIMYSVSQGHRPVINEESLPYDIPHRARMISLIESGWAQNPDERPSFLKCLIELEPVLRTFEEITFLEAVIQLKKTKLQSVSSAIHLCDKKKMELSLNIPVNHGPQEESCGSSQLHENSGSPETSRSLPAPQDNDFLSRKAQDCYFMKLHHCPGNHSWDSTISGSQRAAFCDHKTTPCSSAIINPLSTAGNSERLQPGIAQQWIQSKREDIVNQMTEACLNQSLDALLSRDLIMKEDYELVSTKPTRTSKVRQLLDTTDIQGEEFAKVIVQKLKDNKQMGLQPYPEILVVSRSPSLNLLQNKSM

[4] = target: T4, 371 kinases (kinase named in each endpoint) (Homo sapiens, UniProt O75385); details: ULK1
T4 construct: purchased Reaction Biology
T4 sequence (O75385 whole entry): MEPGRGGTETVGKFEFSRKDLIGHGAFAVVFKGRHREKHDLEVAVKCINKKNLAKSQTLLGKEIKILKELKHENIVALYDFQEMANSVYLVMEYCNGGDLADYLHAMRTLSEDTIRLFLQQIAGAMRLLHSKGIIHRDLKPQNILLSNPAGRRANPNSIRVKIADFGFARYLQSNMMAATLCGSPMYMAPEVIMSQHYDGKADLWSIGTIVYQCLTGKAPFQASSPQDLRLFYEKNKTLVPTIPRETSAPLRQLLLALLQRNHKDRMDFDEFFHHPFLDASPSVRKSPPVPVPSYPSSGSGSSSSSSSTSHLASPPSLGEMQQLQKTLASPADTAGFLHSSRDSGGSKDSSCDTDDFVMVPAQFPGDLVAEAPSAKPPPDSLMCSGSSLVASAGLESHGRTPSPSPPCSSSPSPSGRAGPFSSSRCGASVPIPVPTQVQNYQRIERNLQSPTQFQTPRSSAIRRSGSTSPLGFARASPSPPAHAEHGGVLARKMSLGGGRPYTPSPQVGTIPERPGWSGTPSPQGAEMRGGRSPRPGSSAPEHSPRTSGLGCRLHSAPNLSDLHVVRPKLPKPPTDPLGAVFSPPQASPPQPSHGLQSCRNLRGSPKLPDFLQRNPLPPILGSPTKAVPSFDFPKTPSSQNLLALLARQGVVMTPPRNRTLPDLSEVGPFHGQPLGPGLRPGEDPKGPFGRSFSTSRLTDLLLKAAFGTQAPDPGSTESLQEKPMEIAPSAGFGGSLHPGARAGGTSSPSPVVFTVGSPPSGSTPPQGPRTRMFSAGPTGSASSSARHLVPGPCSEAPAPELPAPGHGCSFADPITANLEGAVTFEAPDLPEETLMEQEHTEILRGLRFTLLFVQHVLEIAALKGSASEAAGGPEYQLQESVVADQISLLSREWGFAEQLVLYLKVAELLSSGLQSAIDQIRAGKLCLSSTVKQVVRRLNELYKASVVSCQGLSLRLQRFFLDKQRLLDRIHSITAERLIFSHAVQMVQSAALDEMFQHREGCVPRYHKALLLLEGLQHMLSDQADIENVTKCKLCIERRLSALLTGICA

[5] = target: T5, 371 kinases (kinase named in each endpoint) (Homo sapiens, UniProt P00519); details: ABL1
T5 construct: purchased Reaction Biology

[6] = target: T6, 371 kinases (kinase named in each endpoint) (Homo sapiens, UniProt P04626); details: ERBB2/HER2
T6 construct: purchased Reaction Biology

[7] = target: T7, 371 kinases (kinase named in each endpoint) (Homo sapiens, UniProt P07333); details: FMS
T7 construct: purchased Reaction Biology

[8] = target: T8, 371 kinases (kinase named in each endpoint) (Homo sapiens, UniProt P08922); details: ROS/ROS1
T8 construct: purchased Reaction Biology

[9] = target: T9, 371 kinases (kinase named in each endpoint) (Homo sapiens, UniProt P20794); details: MAK
T9 construct: purchased Reaction Biology

[10] = target: T10, 371 kinases (kinase named in each endpoint) (Homo sapiens, UniProt P23458); details: JAK1
T10 construct: purchased Reaction Biology

[11] = target: T11, 371 kinases (kinase named in each endpoint) (Homo sapiens, UniProt P27361); details: ERK1
T11 construct: purchased Reaction Biology

[12] = target: T12, 371 kinases (kinase named in each endpoint) (Homo sapiens, UniProt P29597); details: TYK2
T12 construct: purchased Reaction Biology

[13] = target: T13, 371 kinases (kinase named in each endpoint) (Homo sapiens, UniProt P30530); details: AXL
T13 construct: purchased Reaction Biology
T13 sequence (P30530 26-894): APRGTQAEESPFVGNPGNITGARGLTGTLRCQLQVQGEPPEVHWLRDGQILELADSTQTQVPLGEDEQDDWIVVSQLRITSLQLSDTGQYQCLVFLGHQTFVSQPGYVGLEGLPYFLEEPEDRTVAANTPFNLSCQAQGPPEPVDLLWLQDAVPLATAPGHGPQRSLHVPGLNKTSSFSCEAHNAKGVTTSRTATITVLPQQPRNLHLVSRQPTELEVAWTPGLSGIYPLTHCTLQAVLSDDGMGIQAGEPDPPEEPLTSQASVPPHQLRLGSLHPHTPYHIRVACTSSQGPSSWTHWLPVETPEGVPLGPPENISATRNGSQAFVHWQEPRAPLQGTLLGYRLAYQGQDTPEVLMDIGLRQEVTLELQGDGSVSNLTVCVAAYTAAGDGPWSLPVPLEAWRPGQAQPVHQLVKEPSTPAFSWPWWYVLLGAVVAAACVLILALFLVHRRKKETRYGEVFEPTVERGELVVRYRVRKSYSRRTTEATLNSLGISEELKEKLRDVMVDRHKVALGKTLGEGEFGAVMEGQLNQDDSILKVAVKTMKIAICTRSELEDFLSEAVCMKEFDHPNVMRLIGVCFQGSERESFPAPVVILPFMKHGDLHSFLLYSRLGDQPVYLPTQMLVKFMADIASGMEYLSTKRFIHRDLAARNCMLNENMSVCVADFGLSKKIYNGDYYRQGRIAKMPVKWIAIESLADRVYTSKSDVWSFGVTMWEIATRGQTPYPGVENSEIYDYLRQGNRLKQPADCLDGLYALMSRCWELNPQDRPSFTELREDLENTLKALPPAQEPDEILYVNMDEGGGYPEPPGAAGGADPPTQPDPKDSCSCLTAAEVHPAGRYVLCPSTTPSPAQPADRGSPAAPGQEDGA

[14] = target: T14, 371 kinases (kinase named in each endpoint) (Homo sapiens, UniProt P35626); details: GRK3
T14 construct: purchased Reaction Biology

[15] = target: T15, 371 kinases (kinase named in each endpoint) (Homo sapiens, UniProt P49759); details: CLK1
T15 construct: purchased Reaction Biology

[16] = target: T16, 371 kinases (kinase named in each endpoint) (Homo sapiens, UniProt P51956); details: NEK3
T16 construct: purchased Reaction Biology

[17] = target: T17, 371 kinases (kinase named in each endpoint) (Homo sapiens, UniProt P54756); details: EPHA5
T17 construct: purchased Reaction Biology
T17 sequence (P54756 25-1037): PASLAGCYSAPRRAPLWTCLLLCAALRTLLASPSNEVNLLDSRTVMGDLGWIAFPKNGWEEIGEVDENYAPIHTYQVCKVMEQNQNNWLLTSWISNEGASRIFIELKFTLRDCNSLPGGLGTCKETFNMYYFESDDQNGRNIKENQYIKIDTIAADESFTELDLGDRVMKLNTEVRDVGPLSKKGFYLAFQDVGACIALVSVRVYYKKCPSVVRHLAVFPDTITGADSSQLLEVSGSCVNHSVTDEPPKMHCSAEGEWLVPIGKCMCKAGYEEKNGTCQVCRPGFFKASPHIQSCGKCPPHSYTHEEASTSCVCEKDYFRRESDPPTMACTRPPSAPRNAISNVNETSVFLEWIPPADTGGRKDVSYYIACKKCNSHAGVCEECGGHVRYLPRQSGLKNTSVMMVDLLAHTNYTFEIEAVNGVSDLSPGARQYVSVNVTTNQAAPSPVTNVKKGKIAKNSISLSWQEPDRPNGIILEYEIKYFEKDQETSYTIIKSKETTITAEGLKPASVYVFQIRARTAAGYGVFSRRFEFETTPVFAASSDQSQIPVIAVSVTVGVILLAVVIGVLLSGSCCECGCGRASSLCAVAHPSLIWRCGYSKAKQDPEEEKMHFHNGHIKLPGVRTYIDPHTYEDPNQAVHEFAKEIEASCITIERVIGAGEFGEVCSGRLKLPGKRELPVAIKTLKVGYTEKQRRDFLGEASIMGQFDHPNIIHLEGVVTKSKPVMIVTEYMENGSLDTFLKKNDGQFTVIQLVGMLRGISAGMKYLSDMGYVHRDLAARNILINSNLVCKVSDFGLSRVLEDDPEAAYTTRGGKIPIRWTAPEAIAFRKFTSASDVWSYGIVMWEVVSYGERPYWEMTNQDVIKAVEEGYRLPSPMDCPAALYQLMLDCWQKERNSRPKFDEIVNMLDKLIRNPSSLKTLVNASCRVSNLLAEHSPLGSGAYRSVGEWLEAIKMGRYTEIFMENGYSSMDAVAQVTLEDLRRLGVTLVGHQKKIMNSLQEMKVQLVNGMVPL

[18] = target: T18, 371 kinases (kinase named in each endpoint) (Homo sapiens, UniProt Q00537); details: CDK17/CYCLIN Y (PCTK2)
T18 construct: purchased Reaction Biology
T18 sequence (Q00537 whole entry): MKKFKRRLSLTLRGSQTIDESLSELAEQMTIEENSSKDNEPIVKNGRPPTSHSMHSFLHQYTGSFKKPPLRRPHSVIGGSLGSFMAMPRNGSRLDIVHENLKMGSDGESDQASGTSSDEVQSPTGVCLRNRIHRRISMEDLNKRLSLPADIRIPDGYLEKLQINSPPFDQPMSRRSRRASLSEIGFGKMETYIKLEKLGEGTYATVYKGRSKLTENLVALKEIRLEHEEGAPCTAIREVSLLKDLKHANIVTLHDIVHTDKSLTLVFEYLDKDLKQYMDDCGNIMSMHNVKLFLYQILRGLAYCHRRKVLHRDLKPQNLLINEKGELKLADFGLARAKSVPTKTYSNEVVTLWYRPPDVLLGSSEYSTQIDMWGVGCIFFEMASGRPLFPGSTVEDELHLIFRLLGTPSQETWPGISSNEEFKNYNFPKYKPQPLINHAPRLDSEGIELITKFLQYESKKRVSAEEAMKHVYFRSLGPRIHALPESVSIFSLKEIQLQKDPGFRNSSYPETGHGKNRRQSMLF

[19] = target: T19, 371 kinases (kinase named in each endpoint) (Homo sapiens, UniProt Q02750); details: MEK1
T19 construct: purchased Reaction Biology

[20] = target: T20, 371 kinases (kinase named in each endpoint) (Homo sapiens, UniProt Q13043); details: MST1/STK4
T20 construct: purchased Reaction Biology

[21] = target: T21, 371 kinases (kinase named in each endpoint) (Homo sapiens, UniProt Q13233); details: MEKK1
T21 construct: purchased Reaction Biology

[22] = target: T22, 371 kinases (kinase named in each endpoint) (Homo sapiens, UniProt Q13470); details: TNK1
T22 construct: purchased Reaction Biology

[23] = target: T23, 371 kinases (kinase named in each endpoint) (Homo sapiens, UniProt Q15208); details: STK38/NDR1
T23 construct: purchased Reaction Biology
T23 sequence (Q15208 whole entry): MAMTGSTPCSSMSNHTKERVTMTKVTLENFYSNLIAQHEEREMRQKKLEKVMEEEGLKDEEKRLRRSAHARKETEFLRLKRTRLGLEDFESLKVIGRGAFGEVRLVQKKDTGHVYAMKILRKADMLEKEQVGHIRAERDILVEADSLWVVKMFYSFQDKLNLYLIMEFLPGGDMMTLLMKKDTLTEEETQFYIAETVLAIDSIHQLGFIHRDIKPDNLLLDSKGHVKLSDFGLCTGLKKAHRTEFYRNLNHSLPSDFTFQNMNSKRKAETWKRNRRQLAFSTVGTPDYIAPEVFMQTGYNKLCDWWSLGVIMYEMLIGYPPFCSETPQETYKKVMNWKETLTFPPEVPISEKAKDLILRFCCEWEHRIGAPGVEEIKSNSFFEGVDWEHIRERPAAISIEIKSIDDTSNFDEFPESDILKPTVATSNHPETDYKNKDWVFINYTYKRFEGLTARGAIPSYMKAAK

[24] = target: T24, 371 kinases (kinase named in each endpoint) (Homo sapiens, UniProt Q16513); details: PKN2/PRK2
T24 construct: purchased Reaction Biology

[25] = target: T25, 371 kinases (kinase named in each endpoint) (Homo sapiens, UniProt Q5TCX8); details: MLK4
T25 construct: purchased Reaction Biology

[26] = target: T26, 371 kinases (kinase named in each endpoint) (Homo sapiens, UniProt Q86V86); details: PIM3
T26 construct: purchased Reaction Biology

[27] = target: T27, 371 kinases (kinase named in each endpoint) (Homo sapiens, UniProt Q86Y07); details: VRK2
T27 construct: purchased Reaction Biology

[28] = target: T28, 371 kinases (kinase named in each endpoint) (Homo sapiens, UniProt Q8IWQ3); details: BRSK2
T28 construct: purchased Reaction Biology

[29] = target: T29, 371 kinases (kinase named in each endpoint) (Homo sapiens, UniProt Q8WTQ7); details: GRK7
T29 construct: purchased Reaction Biology

[30] = target: T30, 371 kinases (kinase named in each endpoint) (Homo sapiens, UniProt Q96PY6); details: NEK1
T30 construct: purchased Reaction Biology

[31] = target: T31, 371 kinases (kinase named in each endpoint) (Homo sapiens, UniProt Q99683); details: ASK1/MAP3K5
T31 construct: purchased Reaction Biology

[32] = target: T32, 371 kinases (kinase named in each endpoint) (Homo sapiens, UniProt Q9HBH9); details: MNK2
T32 construct: purchased Reaction Biology

[33] = target: T33, 371 kinases (kinase named in each endpoint) (Homo sapiens, UniProt Q9HC98); details: NEK6
T33 construct: purchased Reaction Biology

[34] = target: T34, 371 kinases (kinase named in each endpoint) (Homo sapiens, UniProt Q9P289); details: MST4
T34 construct: purchased Reaction Biology

[35] = target: T35, 371 kinases (kinase named in each endpoint) (Homo sapiens, UniProt Q9UBE8); details: NLK
T35 construct: purchased Reaction Biology

[36] = target: T36, 371 kinases (kinase named in each endpoint) (Homo sapiens, UniProt Q9UF33); details: EPHA6
T36 construct: purchased Reaction Biology

[37] = test system: 371 kinases (kinase named in each endpoint); details: 10 µM

## O=C(O)c1cc(C(F)(F)F)ccc1NCCc1c[nH]c2cc(Br)ccc12 [Compound 5, 2-((2-(6-Bromo-1H-indol-3-yl)ethyl)amino)−5-(trifluoromethyl)benzoic Acid]
[1]
  activity at 10 µM: 145 ± 0.9%
[2]
  activity at 10 µM: 92.1 ± 0.7%
[3]
  activity at 10 µM: 109 ± 2.9%
[4]
  activity at 10 µM: 106.8 ± 0.3%
[5]
  activity at 10 µM: 98.7 ± 0.5%
[6]
  activity at 10 µM: 78 ± 0.2%
[7]
  activity at 10 µM: 98 ± 1.7%
[8]
  activity at 10 µM: 94.7 ± 1.4%
[9]
  activity at 10 µM: 81.6 ± 0.5%
[10]
  activity at 10 µM: 67.7 ± 0.8%
[11]
  activity at 10 µM: 99.7 ± 0.9%
[12]
  activity at 10 µM: 78.1 ± 0.7%
[13]
  activity at 10 µM: 67.9 ± 1.8%
[14]
  activity at 10 µM: 93.7 ± 1.2%
[15]
  activity at 10 µM: 109.3 ± 0.4%
[16]
  activity at 10 µM: 93.3 ± 0.4%
[17]
  activity at 10 µM: 93.4 ± 0.3%
[18]
  activity at 10 µM: 124%
[19]
  activity at 10 µM: 104 ± 2.4%
[20]
  activity at 10 µM: 89.6 ± 2.7%
[21]
  activity at 10 µM: 110 ± 0.1%
[22]
  activity at 10 µM: 94.4 ± 0.5%
[23]
  activity at 10 µM: 88 ± 0.7%
[24]
  activity at 10 µM: 110 ± 1.7%
[25]
  activity at 10 µM: 88.2 ± 0.3%
[26]
  activity at 10 µM: 20.6 ± 1%
[27]
  activity at 10 µM: 94.6 ± 1%
[28]
  activity at 10 µM: 79.5 ± 0.8%
[29]
  activity at 10 µM: 101.5 ± 0.4%
[30]
  activity at 10 µM: 91.8 ± 2.3%
[31]
  activity at 10 µM: 110 ± 2.8%
[32]
  activity at 10 µM: 93.3 ± 1.9%
[33]
  activity at 10 µM: 77.6 ± 0.1%
[34]
  activity at 10 µM: 56 ± 0.2%
[35]
  activity at 10 µM: 81.4 ± 4.1%
[36]
  activity at 10 µM: 91.9 ± 1.1%
[37]
  inhibition of any kinase: ≤ 80%
  share of the 371 kinases tested with >50% inhibition: 4%
[37]; LYN B
  % Activity: 93.2 ± 0.3%
[37]; PKCB2
  % Activity: 100.1 ± 1.4%
[37]; PKG1B
  % Activity: 78.0 ± 0.4%
